Experimental findings from US20210269434A1, “TRICYCLIC COMPOUNDS AS INHIBITORS OF KRAS” (Incyte Corporation, priority 2020, published 2021) are described below.

The target in one assay is KRAS G12C (Homo sapiens, UniProt P01116, G12C). Briefly: GDP-GTP exchange assay (KRAS_G12C exchange). Type of assay: biochemical. To be noted: bodipy-GDP loaded KRAS G12C 2.5 nM, SOS1 150 nM, GppNHp; 2 hours pre-incubation, 2 hours reaction; read-out: G12C_exchange. The gist of the method:
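Fluorescence exchange of bodipy-GDP for GppNHp, SOS1-driven, read at 485/520 nm; IC50 from four-parameter variable-slope fit. Both mutants used 2.5 nM final labelled protein and a 2 h compound pre-incubation. G12C reaction had 500 uM GppNHp and 150 nM SOS1 for 2 h; G12D ran 4 h.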

Assay [1] relates to MIA PaCa-2 (KRAS G12C) cells. The experiment in a line: Cellular pERK HTRF assay (KRAS_G12C pERK). Type of assay: cell-based, human. The following applies: Homo sapiens, MIA PaCa-2, 4 hours incubation, read-out: G12C_pERK. The gist of the method:
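MIA PaCa-2 cells plated overnight, then exposed to compound for 4 h at 37 °C (G12C compounds). Phospho-ERK1/2 measured in lysates by HTRF (665/620 nm) after overnight antibody incubation; IC50 from percent inhibition versus log concentration.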
On the technique in general: TR-FRET usually uses a lanthanide donor and a delayed reading to cut background.

SMILES strings stand for the structures.

KRAS G12C, sequence (P01116 1-188 isoform P01116-2 G12C): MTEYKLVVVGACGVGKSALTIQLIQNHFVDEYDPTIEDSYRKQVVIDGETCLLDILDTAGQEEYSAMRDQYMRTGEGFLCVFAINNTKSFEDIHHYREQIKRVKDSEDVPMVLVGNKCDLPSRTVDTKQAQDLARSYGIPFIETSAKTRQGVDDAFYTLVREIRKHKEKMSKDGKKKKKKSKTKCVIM

As to `C=CC(=O)N1CC[C@H](n2cnc3c(N4CC(N(C)C)C4)nc4c(F)c(-c5cnc(C)c6ccccc56)c(Cl)cc4c32)C[C@H]1CC#N` [Example 268a, 2-((2S,4S)-1-acryloyl-4-(8-chloro-4-(3-(dimethylamino)azetidin-1-yl)-6-fluoro-7-(1-methylisoquinolin-4-yl)-1H-imidazo[4,5-c]quinolin-1-yl)piperidin-2-yl)acetonitrile], the IC50 (at KRAS G12C; in assay [1]) was at most 100 nM throughout.

Take `Cc1cc2c(nc(-n3ccnc3C)c3nnn([C@H]4CCN(C(=O)/C=C/CN(C)C)[C@H](CC#N)C4)c32)c(F)c1-c1ccccc1C(F)(F)F` (single isomer, unassigned) [Example 167a]: the IC50 (on KRAS G12C; in assay [1]) was at most 100 nM each time.

With `Cc1cc2c(nc(OC[C@@H]3CCCN3C)c3nnn([C@H]4CCN(C(=O)/C=C/C(F)F)[C@H](CC#N)C4)c32)c(F)c1-c1ccccc1C(F)(F)F` [Example 161a, 2-((2S,4S)-1-((E)-4,4-difluorobut-2-enoyl)-4-(6-fluoro-8-methyl-4-(((S)-1-methylpyrrolidin-2-yl)methoxy)-7-(2-(trifluoromethyl)phenyl)-1H-[1,2,3]triazolo[4,5-c]quinolin-1-yl)piperidin-2-yl)acetonitrile], the IC50 (on KRAS G12C; in assay [1]) was at most 100 nM throughout.

For `Cc1c(C#N)cccc1-c1c(Cl)cc2c(nc(OC[C@@H]3CCCN3C)c3nnn([C@H]4CCN(C(=O)/C=C/CN(C)C)[C@H](CC#N)C4)c32)c1F` [Example 97, 3-(8-chloro-1-((2S,4S)-2-(cyanomethyl)-1-((E)-4-(dimethylamino)but-2-enoyl)piperidin-4-yl)-6-fluoro-4-(((S)-1-methylpyrrolidin-2-yl)methoxy)-1H-[1,2,3]triazolo[4,5-c]quinolin-7-yl)-2-methylbenzonitrile], the IC50 (on KRAS G12C; in assay [1]) was at most 100 nM throughout.

For `C=CC(=O)N1CC[C@H](n2cnc3c(N4CC(N(C)C)C4)nc4c(F)c(-c5cccc(C#N)c5C)c(Cl)cc4c32)C[C@H]1CC#N` [Example 17, 3-(1-((2S,4S)-1-acryloyl-2-(cyanomethyl)piperidin-4-yl)-8-chloro-4-(3-(dimethylamino)azetidin-1-yl)-6-fluoro-1H-imidazo[4,5-c]quinolin-7-yl)-2-methylbenzonitrile], the IC50 (at KRAS G12C; in assay [1]) was at most 100 nM in each case.

As to `C=CC(=O)N1CC[C@H](n2nnc3c(N4CC(N(C)C)C4)nc4c(F)c(-c5c(C)c(Cl)cc6[nH]ncc56)c(C#N)cc4c32)C[C@H]1CC#N` [Example 169, 1-((2S,4S)-1-acryloyl-2-(cyanomethyl)piperidin-4-yl)-7-(6-chloro-5-methyl-1H-indazol-4-yl)-4-(3-(dimethylamino)azetidin-1-yl)-6-fluoro-1H-[1,2,3]triazolo[4,5-c]quinoline-8-carbonitrile], the IC50 (at KRAS G12C; in assay [1]) was at most 100 nM in each case.

Consider `C=CC(=O)N1CC[C@H](n2cnc3c(N4CC(N(C)C)C4)nc4c(F)c(-c5cccc6ccncc56)c(Cl)cc4c32)C[C@H]1CC#N` (single isomer, unassigned) [Example 71a], for which the IC50 (on KRAS G12C; in assay [1]) was at most 100 nM throughout.

As to `C=CC(=O)N1CC[C@H](n2nnc3c(N4CC(N(C)C)C4)nc4c(Cl)c(-c5ccc(F)c6cccnc56)c(Cl)cc4c32)C[C@H]1CC#N` (single isomer, unassigned) [Example 271a], the IC50 (at KRAS G12C; in assay [1]) was at most 100 nM throughout.

For `C=CC(=O)N1C[C@H](C)[C@@H](n2cnc3c(OC[C@@H]4CCCN4C)nc4c(F)c(-c5cc(O)cc6ccccc56)c(Cl)cc4c32)C1` (single isomer, unassigned) [Example 29b], the IC50 (at KRAS G12C; in assay [1]) was at most 100 nM each time.

Turning to `Cc1cccc(-c2c(C)cc3c(nc(OC[C@@H]4CCCN4C)c4nnn([C@H]5CCN(C(=O)/C=C/C(F)F)[C@H](CC#N)C5)c43)c2F)c1C` [Example 141, 2-((2S,4S)-1-((E)-4,4-difluorobut-2-enoyl)-4-(7-(2,3-dimethylphenyl)-6-fluoro-8-methyl-4-(((S)-1-methylpyrrolidin-2-yl)methoxy)-1H-[1,2,3]triazolo[4,5-c]quinolin-1-yl)piperidin-2-yl)acetonitrile], the IC50 (at KRAS G12C; in assay [1]) was at most 100 nM in each case.

As for `CC#CC(=O)N1CC[C@H](n2nnc3c(OC[C@@H]4CCCN4C)nc4c(Cl)c(-c5cccc6cccnc56)c(Cl)cc4c32)C[C@H]1CC#N` (single isomer, unassigned) [Example 279a], the IC50 (on KRAS G12C; in assay [1]) was at most 100 nM in each case.

With `CC#CC(=O)N1CC[C@H](n2nnc3c(OC[C@@H]4CCCN4C)nc4c(F)c(-c5cccc(Cl)c5C)c(C)cc4c32)C[C@H]1CC#N` [Example 99, 2-((2S,4S)-1-(but-2-ynoyl)-4-(7-(3-chloro-2-methylphenyl)-6-fluoro-8-methyl-4-(((S)-1-methylpyrrolidin-2-yl)methoxy)-1H-[1,2,3]triazolo[4,5-c]quinolin-1-yl)piperidin-2-yl)acetonitrile], the IC50 (on KRAS G12C; in assay [1]) was at most 100 nM in each case.

Take `C=CC(=O)N1CC[C@H](n2nnc3c(N4CC(N(C)C)C4)nc4c(Cl)c(-c5cccc(C)c5Cl)c(Cl)cc4c32)C[C@H]1CC#N` [Example 282, 2-((2S,4S)-1-acryloyl-4-(6,8-dichloro-7-(2-chloro-3-methylphenyl)-4-(3-(dimethylamino)azetidin-1-yl)-1H-[1,2,3]triazolo[4,5-c]quinolin-1-yl)piperidin-2-yl)acetonitrile]: the IC50 (at KRAS G12C; in assay [1]) was at most 100 nM in each case.

For `C=CC(=O)N1CCC(n2cnc3c(OC[C@@H]4CCCN4C)nc4c(F)c(-c5cccc(C)c5C)c(Cl)cc4c32)CC1CC#N` (mixture of isomers) [Example 43, 2-(1-acryloyl-4-(8-chloro-7-(2,3-dimethylphenyl)-6-fluoro-4-(((S)-1-methyl-pyrrolidin-2-yl)methoxy)-1H-imidazo[4,5-c]quinolin-1-yl)piperidin-2-yl)acetonitrile], the IC50 (on KRAS G12C; in assay [1]) was at most 100 nM in each case.

As for `Cc1cc2c(nc(N3CC(C)(N(C)C)C3)c3nnn([C@H]4CCN(C(=O)/C=C/C(F)F)[C@H](CC#N)C4)c32)c(F)c1-c1c(C)c(Cl)cc2[nH]ncc12` [Example 197a, 2-((2S,4S)-4-(7-(6-chloro-5-methyl-1H-indazol-4-yl)-4-(3-(dimethylamino)-3-methylazetidin-1-yl)-6-fluoro-8-methyl-1H-[1,2,3]triazolo[4,5-c]quinolin-1-yl)-1-((E)-4,4-difluorobut-2-enoyl)piperidin-2-yl)acetonitrile], the IC50 (on KRAS G12C; in assay [1]) was at most 100 nM each time.

With `Cc1nccn1-c1nc2c(F)c(-c3ccc(F)cc3)c(Cl)cc2c2c1ncn2[C@H]1CCN(C(=O)/C=C/CF)[C@H](CC#N)C1` [Example 125, 2-((2S,4S)-4-(8-chloro-6-fluoro-7-(4-fluorophenyl)-4-(2-methyl-1H-imidazol-1-yl)-1H-imidazo[4,5-c]quinolin-1-yl)-1-((E)-4-fluorobut-2-enoyl)piperidin-2-yl)acetonitrile], the IC50 (on KRAS G12C; in assay [1]) was at most 100 nM throughout.

On to `C=CC(=O)N1CC[C@H](n2cnc3c(N4CC(N(C)C)C4)nc4c(F)c(-c5cc(O)ccc5C)c(Cl)cc4c32)C[C@H]1CC#N` (single isomer, unassigned) [Example 53a], for which the IC50 (on KRAS G12C; in assay [1]) was at most 100 nM each time.
